Patent US20240116845A1, “INDENE COMPOUNDS, PHARMACEUTICAL COMPOSITIONS THEREOF, AND THEIR THERAPEUTIC APPLICATIONS” (NucMito Pharmaceuticals Co., Ltd., priority 2021, published 2024)

Key:
Assay type in all cases: cell-based
[1] = tested on: A431 (epidermoid carcinoma); assay: Antiproliferative activity, CCK-8 cell viability; details: Homo sapiens, A-431, 72 h, read-out: Inhibition of Cancerous Cells, A431; for inhibition at 3.3 µM: compound concentration of 3.3 μM; for inhibition at 10 µM: compound concentration of 10 μM; for inhibition at 30 µM: compound concentration of 30 μM
Procedure: (§1) The antiproliferative activity of a compound was determined in the following cell lines: MDA-MB-231 (breast cancer), HepG2 (liver cancer), SW480 (colon cancer), B16F10 (malignant melanoma), A431 (epidermoid carcinoma), A549 (lung adenocarcinoma), and HeLa (cervical cancer). MDA-MB-231, HepG2, SW480, B16F10, and A431 cells were cultured in Dulbecco's modified Eagle's medium (DMEM) containing 10% fetal bovine serum (FBS). HeLa cells were cultured in MEM/EBSS (MEM) containing 10% FBS. A549 cells were maintained in Kaighn's modification of Ham's F-12 medium containing 10% FBS. The Cell Counting Kit-8 (CCK-8) assay was used to determine the cell viability of cells following treatment with the compound.
(§2) Briefly, cells were seeded in a 96-well plate at a density of 2,000-5,000 cells/well. Following attachment, the cells were treated with the compound in media at a compound concentration of 3.3 μM, 10 μM, or 30 μM, or DMSO as a control. After the cells were incubated at 37° C. for 72 h, the CCK-8 solution (10 μL) was added to each well. After incubation at 37° C. for 4 h, the absorbance value of each well was determined using a multi-well plate reader at 450 nm. The percentage of cell viability was determined with respect to the DMSO-treated cells. The results were summarized in Table 2-4 below, wherein A represents no less than 50% inhibition of cell growth; B represents less than 50% but no less than 30% inhibition of cell growth; C represents less than 30% inhibition of cell growth.

HeLa (cervical cancer) = assay: Antiproliferative activity, CCK-8 cell viability; details: Homo sapiens, 72 h, read-out: Inhibition of Cancerous Cells, HELA; for inhibition at 3.3 µM: compound concentration of 3.3 μM; for inhibition at 10 µM: compound concentration of 10 μM; for inhibition at 30 µM: compound concentration of 30 μM
Procedure: as §1, §2

[2] = tested on: MDA-MB-231 (breast cancer); assay: Antiproliferative activity, CCK-8 cell viability; details: Homo sapiens, 72 h, read-out: Inhibition of Cancerous Cells, MDA-MB-231; for inhibition at 3.3 µM: compound concentration of 3.3 μM; for inhibition at 10 µM: compound concentration of 10 μM; for inhibition at 30 µM: compound concentration of 30 μM
Procedure: as §1, §2

SW480 (colon cancer) = assay: Antiproliferative activity, CCK-8 cell viability; details: Homo sapiens, 72 h, read-out: Inhibition of Cancerous Cells, SW480; for inhibition at 3.3 µM: compound concentration of 3.3 μM; for inhibition at 10 µM: compound concentration of 10 μM; for inhibition at 30 µM: compound concentration of 30 μM
Procedure: as §1, §2

[3] = tested on: B16F10 (malignant melanoma); assay: Antiproliferative activity, CCK-8 cell viability; details: Mus musculus, B16-F10, 72 h, read-out: Inhibition of Cancerous Cells, B16F10; for inhibition at 3.3 µM: compound concentration of 3.3 μM; for inhibition at 10 µM: compound concentration of 10 μM; for inhibition at 30 µM: compound concentration of 30 μM
Procedure: as §1, §2

HepG2 (liver cancer) = assay: Antiproliferative activity, CCK-8 cell viability; details: Homo sapiens, 72 h, read-out: Inhibition of Cancerous Cells, HepG2; for inhibition at 3.3 µM: compound concentration of 3.3 μM; for inhibition at 10 µM: compound concentration of 10 μM; for inhibition at 30 µM: compound concentration of 30 μM
Procedure: as §1, §2

[4] = tested on: A549 (lung adenocarcinoma); assay: Antiproliferative activity, CCK-8 cell viability; details: Homo sapiens, 72 h, read-out: Inhibition of Cancerous Cells, A549; for inhibition at 3.3 µM: compound concentration of 3.3 μM; for inhibition at 10 µM: compound concentration of 10 μM; for inhibition at 30 µM: compound concentration of 30 μM
Procedure: as §1, §2

[5] = tested on: alpha-smooth muscle actin (α-SMA); assay: Inhibition of TGF-β induced expression of alpha-smooth muscle actin in CFSC cells (western blot); details: compound at 10 μM, TGF-β (10 ng/mL), 24 hours
Procedure: The ability of a compound to inhibit the TGF-β induced expression of alpha-smooth muscle actin (α-SMA) was evaluated in CCl4-treated fat storing (CFSC) cells. α-SMA is considered as a reliable marker of hepatic stellate cell activation and a key biomarker for liver fibrosis.
CFSC cells maintained in a DMEM medium supplemented with 10% fetal bovine serum were seeded to 12-well culture dishes and grown to a confluence of 60-70% the next day. Culture was changed to a serum-free DMEM medium and the cells were treated with the compound at 10 μM in the presence of TGF-β (10 ng/mL). The cells were incubated for another 24 hours. All culture was maintained at 37° C. in 5% carbon dioxide.
An NP-40 lysate solution (50 mM Tris, pH 7.4, 150 mM NaCl, 1% NP-40) with EDTA free cocktail added was used to lyse the cells on ice for 30 min. The lysate was collected and centrifuged at 4° C. for 10 min at 12,000 rpm. The pellet was discarded and the supernatant was transferred to a new tube. The cell lysate was loaded with 5× loading buffer and boiled for 10 min, resolved by 10% SDS-polyacrylamide gel electrophoresis (SDS-PAGE), and transferred to a PVDF membrane. The membrane was blocked with 5% skim milk in Tris-buffered saline and TWEEN® 20 (TBST; 10 mM Tris-HCl, pH 8.0, 150 mM NaCl, 0.1% TWEEN® 20) for 1 h at room temperature and then incubated with α-SMA and β-actin antibodies overnight at 4° C. After washing twice with TBST, the membrane was probed with a […] anti-immunoglobulin (1:5000 dilution) for 1 h at room temperature. After two subsequent rinses in TBST, immunoreactive products were reacted with ECL and visualized by a UVP CHEMSTUDIO™ imaging system. The western blotting bands are quantitated using an ImageJ software. The percentage of inhibition was obtained by calculating the percentage decrease in the band intensity compared to the one treated with TGF-β only.
The results are summarized in Table 1, where A represents a value no less than 80/% inhibition, B represents a value less than 80% but no less than 50% inhibition, C represents a value less than 50% but no less than 30% inhibition, and D represents a value less than 30% inhibition with a compound at 10 μM.

## CC1=C(CC(=O)O)c2c(F)cc(F)cc2/C1=C\c1ccc(Oc2ccc(F)cc2)cc1 [Compound D16, 2-[(1Z)-4,6-Difluoro-2-methyl-1-({4-[4-fluorophenoxy]phenyl}methylidene)-1H-inden-3-yl]acetic acid]
[1]
  inhibition at 3.3 µM: < 30%
  inhibition at 10 µM: 30 to 50%
  inhibition at 30 µM: ≥ 50%
HeLa (cervical cancer)
  inhibition at 3.3 µM: < 30%
  inhibition at 10 µM: 30 to 50%
  inhibition at 30 µM: ≥ 50%
[2]
  inhibition at 3.3 µM: ≥ 50%
  inhibition at 10 µM: ≥ 50%
  inhibition at 30 µM: ≥ 50%
SW480 (colon cancer)
  inhibition at 3.3 µM: < 30%
  inhibition at 10 µM: 30 to 50%
  inhibition at 30 µM: ≥ 50%
[3]
  inhibition at 3.3 µM: < 30%
  inhibition at 10 µM: 30 to 50%
  inhibition at 30 µM: ≥ 50%
HepG2 (liver cancer)
  inhibition at 3.3 µM: 30 to 50%
  inhibition at 10 µM: 30 to 50%
  inhibition at 30 µM: ≥ 50%
[4]
  inhibition at 3.3 µM: < 30%
  inhibition at 10 µM: 30 to 50%
  inhibition at 30 µM: 30 to 50%
[5]
  inhibition at 10 µM: ≥ 80%

## CC1=C(CC(=O)O)c2cc(F)ccc2/C1=C\c1ccc(CN(Cc2ccccc2)c2ccccc2)cc1 [Compound A10, 2-[(1Z)-1-[(4-{[Benzyl(phenyl)amino]methyl}phenyl)methylidene]-5-fluoro-2-methyl-1H-inden-3-yl]acetic acid]
[1]
  inhibition at 3.3 µM: ≥ 50%
  inhibition at 10 µM: ≥ 50%
  inhibition at 30 µM: ≥ 50%
HeLa (cervical cancer)
  inhibition at 3.3 µM: ≥ 50%
  inhibition at 10 µM: ≥ 50%
  inhibition at 30 µM: ≥ 50%
[2]
  inhibition at 3.3 µM: ≥ 50%
  inhibition at 10 µM: ≥ 50%
  inhibition at 30 µM: ≥ 50%
SW480 (colon cancer)
  inhibition at 3.3 µM: ≥ 50%
  inhibition at 10 µM: ≥ 50%
  inhibition at 30 µM: ≥ 50%
[3]
  inhibition at 3.3 µM: < 30%
  inhibition at 10 µM: ≥ 50%
  inhibition at 30 µM: ≥ 50%
HepG2 (liver cancer)
  inhibition at 3.3 µM: ≥ 50%
  inhibition at 10 µM: ≥ 50%
  inhibition at 30 µM: ≥ 50%
[4]
  inhibition at 3.3 µM: 30 to 50%
  inhibition at 10 µM: ≥ 50%
  inhibition at 30 µM: ≥ 50%
[5]
  inhibition at 10 µM: ≥ 80%

## CC1=C(CC(=O)O)c2cc(F)cc(F)c2/C1=C\c1cccc(Oc2ccccc2)c1 [Compound D20, 2-[(1Z)-5,7-Difluoro-1-(3-(phenoxy)benzylidene)-2-methyl-1H-inden-3-yl]-acetic acid]
[1]
  inhibition at 3.3 µM: < 30%
  inhibition at 10 µM: < 30%
  inhibition at 30 µM: ≥ 50%
HeLa (cervical cancer)
  inhibition at 3.3 µM: < 30%
  inhibition at 10 µM: < 30%
  inhibition at 30 µM: ≥ 50%
[2]
  inhibition at 3.3 µM: 30 to 50%
  inhibition at 10 µM: ≥ 50%
  inhibition at 30 µM: ≥ 50%
SW480 (colon cancer)
  inhibition at 3.3 µM: ≥ 50%
  inhibition at 10 µM: ≥ 50%
  inhibition at 30 µM: ≥ 50%
[3]
  inhibition at 3.3 µM: 30 to 50%
  inhibition at 10 µM: ≥ 50%
  inhibition at 30 µM: ≥ 50%
HepG2 (liver cancer)
  inhibition at 3.3 µM: ≥ 50%
  inhibition at 10 µM: ≥ 50%
  inhibition at 30 µM: ≥ 50%
[4]
  inhibition at 3.3 µM: 30 to 50%
  inhibition at 10 µM: ≥ 50%
  inhibition at 30 µM: ≥ 50%
[5]
  inhibition at 10 µM: ≥ 80%

## CC1=C(CC(=O)N(C)O)c2cc(F)ccc2/C1=C\c1ccc(Oc2ccccc2)cc1 [Compound B1, 2-[(1Z)-5-Fluoro-2-methyl-1-[(4-phenoxyphenyl)methylidene]-1H-inden-3-yl]-N-hydroxy-N-methylacetamide]
[1]
  inhibition at 3.3 µM: ≥ 50%
  inhibition at 10 µM: ≥ 50%
  inhibition at 30 µM: ≥ 50%
HeLa (cervical cancer)
  inhibition at 3.3 µM: 30 to 50%
  inhibition at 10 µM: ≥ 50%
  inhibition at 30 µM: ≥ 50%
[2]
  inhibition at 3.3 µM: ≥ 50%
  inhibition at 10 µM: ≥ 50%
  inhibition at 30 µM: ≥ 50%
SW480 (colon cancer)
  inhibition at 3.3 µM: ≥ 50%
  inhibition at 10 µM: ≥ 50%
  inhibition at 30 µM: ≥ 50%
[3]
  inhibition at 3.3 µM: ≥ 50%
  inhibition at 10 µM: ≥ 50%
  inhibition at 30 µM: ≥ 50%
HepG2 (liver cancer)
  inhibition at 3.3 µM: < 30%
  inhibition at 10 µM: 30 to 50%
  inhibition at 30 µM: ≥ 50%
[4]
  inhibition at 3.3 µM: ≥ 50%
  inhibition at 10 µM: ≥ 50%
  inhibition at 30 µM: ≥ 50%
[5]
  inhibition at 10 µM: 50 to 80%

## CC1=C(CC(=O)N(C)O)c2cc(F)ccc2/C1=C\c1ccc(Oc2ccc(F)cc2)cc1 [Compound B2, 2-[(1Z)-5-Fluoro-1-{[4-(4-fluorophenoxy)phenyl]methylidene}-2-methyl-1H-inden-3-yl]-N-hydroxy-N-methylacetamide]
[1]
  inhibition at 3.3 µM: ≥ 50%
  inhibition at 10 µM: ≥ 50%
  inhibition at 30 µM: ≥ 50%
HeLa (cervical cancer)
  inhibition at 3.3 µM: 30 to 50%
  inhibition at 10 µM: 30 to 50%
  inhibition at 30 µM: ≥ 50%
[2]
  inhibition at 3.3 µM: ≥ 50%
  inhibition at 10 µM: ≥ 50%
  inhibition at 30 µM: ≥ 50%
SW480 (colon cancer)
  inhibition at 3.3 µM: ≥ 50%
  inhibition at 10 µM: ≥ 50%
  inhibition at 30 µM: ≥ 50%
[3]
  inhibition at 3.3 µM: ≥ 50%
  inhibition at 10 µM: ≥ 50%
  inhibition at 30 µM: ≥ 50%
HepG2 (liver cancer)
  inhibition at 3.3 µM: < 30%
  inhibition at 10 µM: 30 to 50%
  inhibition at 30 µM: ≥ 50%
[4]
  inhibition at 3.3 µM: ≥ 50%
  inhibition at 10 µM: ≥ 50%
  inhibition at 30 µM: ≥ 50%
[5]
  inhibition at 10 µM: ≥ 80%
